# According to PubChem BioAssay AID1259407 (Chemical Carcinogenesis Research Information System (CCRIS), 2018):
# Active and inactive are the calls of the source. No rule for the calls is given here.
# Test system: CCRIS mutagenicity, Ames/micronucleus/aberration tests
# Assay: CCRIS mutagenicity studies
# [1] = Test System: AMES SALMONELLA TYPHIMURIUM, Strain/Indicator: TA100, Metabolic Activation: NONE, Method: STANDARD PLATE
# [2] = Test System: AMES SALMONELLA TYPHIMURIUM, Strain/Indicator: TA100, Metabolic Activation: RAT, LIVER, S-9, AROCLOR 1254, Method: STANDARD PLATE
# [3] = Test System: AMES SALMONELLA TYPHIMURIUM, Strain/Indicator: TA1535, Metabolic Activation: NONE, Method: STANDARD PLATE
# [4] = Test System: AMES SALMONELLA TYPHIMURIUM, Strain/Indicator: TA1535, Metabolic Activation: RAT, LIVER, S-9, AROCLOR 1254, Method: STANDARD PLATE
# [5] = Test System: AMES SALMONELLA TYPHIMURIUM, Strain/Indicator: TA97, Metabolic Activation: NONE, Method: STANDARD PLATE
# [6] = Test System: AMES SALMONELLA TYPHIMURIUM, Strain/Indicator: TA97, Metabolic Activation: RAT, LIVER, S-9, AROCLOR 1254, Method: STANDARD PLATE
# [7] = Test System: AMES SALMONELLA TYPHIMURIUM, Strain/Indicator: TA98, Metabolic Activation: RAT, LIVER, S-9, AROCLOR 1254, Method: STANDARD PLATE
# [8] = Test System: AMES SALMONELLA TYPHIMURIUM, Strain/Indicator: TA1538, Metabolic Activation: RAT, LIVER, S-9, AROCLOR 1254, Method: STANDARD PLATE
# [9] = Test System: AMES SALMONELLA TYPHIMURIUM, Strain/Indicator: TA98, Metabolic Activation: NONE, Method: STANDARD PLATE
structure (smiles),measurement,setting,value
C=C(C)C1CCC2(C)OC2C1 (stereo unspecified),mutagenic call,[1],inactive; negative
same,mutagenic call,[2],inactive; negative
same,mutagenic call,[3],inactive; negative
same,mutagenic call,[4],inactive; negative
same,mutagenic call,"Test System: UDS RAT HEPATOCYTES, Strain/Indicator: THY INCORP, Metabolic Activation: NONE",inactive; negative
O=C/C=C/C=C/C=O,mutagenic call,"Test System: AMES SALMONELLA TYPHIMURIUM, Strain/Indicator: TA97, Metabolic Activation: NONE, Method: PREINCUBATION",inactive; negative
same,mutagenic call,[5],active; positive
same,mutagenic call,"Test System: AMES SALMONELLA TYPHIMURIUM, Strain/Indicator: TA97, Metabolic Activation: RAT, LIVER, S-9, AROCLOR 1254, Method: PREINCUBATION",inactive; negative
same,mutagenic call,[6],active; positive
same,mutagenic call,"Test System: AMES SALMONELLA TYPHIMURIUM, Strain/Indicator: TA98, Metabolic Activation: NONE, Method: PREINCUBATION",inactive; negative
same,mutagenic call,"Test System: AMES SALMONELLA TYPHIMURIUM, Strain/Indicator: TA98, Metabolic Activation: RAT, LIVER, S-9, AROCLOR 1254, Method: PREINCUBATION",inactive; negative
same,mutagenic call,[7],inactive; negative
same,mutagenic call,"Test System: AMES SALMONELLA TYPHIMURIUM, Strain/Indicator: TA100, Metabolic Activation: NONE, Method: PREINCUBATION",inactive; negative
same,mutagenic call,[1],inactive; negative
same,mutagenic call,"Test System: AMES SALMONELLA TYPHIMURIUM, Strain/Indicator: TA100, Metabolic Activation: RAT, LIVER, S-9, AROCLOR 1254, Method: PREINCUBATION",inactive; negative
same,mutagenic call,[2],inactive; negative
same,mutagenic call,"Test System: AMES SALMONELLA TYPHIMURIUM, Strain/Indicator: TA102, Metabolic Activation: NONE, Method: PREINCUBATION",inactive; negative
same,mutagenic call,"Test System: AMES SALMONELLA TYPHIMURIUM, Strain/Indicator: TA102, Metabolic Activation: RAT, LIVER, S-9, AROCLOR 1254, Method: PREINCUBATION",inactive; negative
same,mutagenic call,"Test System: AMES SALMONELLA TYPHIMURIUM, Strain/Indicator: TA104, Metabolic Activation: NONE, Method: PREINCUBATION",inactive; negative
same,mutagenic call,"Test System: AMES SALMONELLA TYPHIMURIUM, Strain/Indicator: TA104, Metabolic Activation: RAT, LIVER, S-9, AROCLOR 1254, Method: PREINCUBATION",inactive; negative
same,mutagenic call,"Test System: AMES SALMONELLA TYPHIMURIUM, Strain/Indicator: TA1535, Metabolic Activation: NONE, Method: PREINCUBATION",inactive; negative
same,mutagenic call,"Test System: AMES SALMONELLA TYPHIMURIUM, Strain/Indicator: TA1535, Metabolic Activation: RAT, LIVER, S-9, AROCLOR 1254, Method: PREINCUBATION",inactive; negative
same,mutagenic call,[4],inactive; negative
same,mutagenic call,[8],inactive; negative
same,mutagenic call,"Test System: CHINESE HAMSTER OVARY, Strain/Indicator: CHO-K1-BH4 (HGPRT), Metabolic Activation: NONE, Method: STANDARD PLATE",inactive; negative
same,mutagenic call,"Test System: CHINESE HAMSTER V-79, Strain/Indicator: V-79 (HGPRT)/8-AZAGUANINE, Metabolic Activation: NONE",active; positive
same,mutagenic call,"Test System: CHINESE HAMSTER V-79, Strain/Indicator: V-79/6-THIOGUANINE, Metabolic Activation: NONE",active; positive
same,mutagenic call,"Test System: E. COLI, Strain/Indicator: WP2 UVRA, Metabolic Activation: NONE, Method: PREINCUBATION",inactive; negative
same,mutagenic call,"Test System: E. COLI, Strain/Indicator: WP2 UVRA, Metabolic Activation: RAT, LIVER, S-9, AROCLOR 1254, Method: PREINCUBATION",inactive; negative
same,mutagenic call,"Test System: UDS RODENT HEPATOCYTES, Strain/Indicator: THY INCORP (NON-S-PHASE), Metabolic Activation: NONE, Method: AUTORADIOGRAPHY",inactive; negative
Cc1ccc2c(ccc3ccccc32)c1,mutagenic call,[5],inactive; negative
same,mutagenic call,"Test System: AMES SALMONELLA TYPHIMURIUM, Strain/Indicator: TA97, Metabolic Activation: RAT, LIVER, S-9, PCB, Method: STANDARD PLATE",active; positive
same,mutagenic call,[9],inactive; negative
same,mutagenic call,"Test System: AMES SALMONELLA TYPHIMURIUM, Strain/Indicator: TA98, Metabolic Activation: RAT, LIVER, S-9, PCB, Method: STANDARD PLATE",active; positive
same,mutagenic call,[1],inactive; negative
same,mutagenic call,"Test System: AMES SALMONELLA TYPHIMURIUM, Strain/Indicator: TA100, Metabolic Activation: RAT, LIVER, S-9, PCB, Method: STANDARD PLATE",active; positive
CCc1ccco1,mutagenic call,"Test System: AMES SALMONELLA TYPHIMURIUM, Strain/Indicator: TA98, Metabolic Activation: HAMSTER, LIVER, S-9, AROCLOR 1254, Method: STANDARD PLATE",inactive; negative
same,mutagenic call,[9],inactive; negative
same,mutagenic call,[7],inactive; negative
same,mutagenic call,"Test System: AMES SALMONELLA TYPHIMURIUM, Strain/Indicator: TA100, Metabolic Activation: HAMSTER, LIVER, S-9, AROCLOR 1254, Method: STANDARD PLATE",inactive; negative
same,mutagenic call,[1],inactive; negative
same,mutagenic call,[2],inactive; negative
same,mutagenic call,"Test System: AMES SALMONELLA TYPHIMURIUM, Strain/Indicator: TA1535, Metabolic Activation: HAMSTER, LIVER, S-9, AROCLOR 1254, Method: STANDARD PLATE",inactive; negative
same,mutagenic call,[3],inactive; negative
same,mutagenic call,[4],inactive; negative
same,mutagenic call,"Test System: AMES SALMONELLA TYPHIMURIUM, Strain/Indicator: TA1537, Metabolic Activation: HAMSTER, LIVER, S-9, AROCLOR 1254, Method: STANDARD PLATE",inactive; negative
same,mutagenic call,"Test System: AMES SALMONELLA TYPHIMURIUM, Strain/Indicator: TA1537, Metabolic Activation: NONE, Method: STANDARD PLATE",inactive; negative
same,mutagenic call,"Test System: AMES SALMONELLA TYPHIMURIUM, Strain/Indicator: TA1537, Metabolic Activation: RAT, LIVER, S-9, AROCLOR 1254, Method: STANDARD PLATE",inactive; negative
same,mutagenic call,"Test System: AMES SALMONELLA TYPHIMURIUM, Strain/Indicator: TA1538, Metabolic Activation: HAMSTER, LIVER, S-9, AROCLOR 1254, Method: STANDARD PLATE",inactive; negative
same,mutagenic call,"Test System: AMES SALMONELLA TYPHIMURIUM, Strain/Indicator: TA1538, Metabolic Activation: NONE, Method: STANDARD PLATE",inactive; negative
same,mutagenic call,[8],inactive; negative
same,mutagenic call,"Test System: MOUSE LYMPHOMA, Strain/Indicator: L5178Y (TK+/TK-), Metabolic Activation: NONE, Method: SUSPENSION/PLATE",inactive; negative
same,mutagenic call,"Test System: MOUSE LYMPHOMA, Strain/Indicator: L5178Y (TK+/TK-), Metabolic Activation: RAT, LIVER, S-9, AROCLOR 1254, Method: SUSPENSION/PLATE",active; positive
same,mutagenic call,"Test System: Mouse lymphoma, Strain/Indicator: L5178Y (tk+/tk-), Metabolic Activation: Rat, Liver, S-9, Aroclor 1254, Method: Suspension/plate",active; equivocal (previous evaluation positive)
O[C@@H]1C=C2c3ccccc3-c3cccc(c32)[C@H]1O,mutagenic call,"Test System: AMES SALMONELLA TYPHIMURIUM, Strain/Indicator: TM677, Metabolic Activation: NONE, Method: PREINCUBATION",active; positive
same,mutagenic call,"Test System: AMES SALMONELLA TYPHIMURIUM, Strain/Indicator: TM677, Metabolic Activation: RAT, LIVER, POSTMITOCHONDRIAL SUPERNATANT, AROCLOR 1254, Method: PREINCUBATION",active; positive
CC(NC(=O)COc1ccc(Cl)cc1Cl)C(=O)O (stereo unspecified),mutagenic call,[6],inactive; negative
same,mutagenic call,"Test System: AMES SALMONELLA TYPHIMURIUM, Strain/Indicator: TA97, Metabolic Activation: WOODCHUCK, LIVER, S-9, 3-METHYLCHOLANTHRENE, Method: STANDARD PLATE",inactive; negative
same,mutagenic call,[7],inactive; negative
same,mutagenic call,"Test System: AMES SALMONELLA TYPHIMURIUM, Strain/Indicator: TA98, Metabolic Activation: WOODCHUCK, LIVER, S-9, 3-METHYLCHOLANTHRENE, Method: STANDARD PLATE",inactive; negative
same,mutagenic call,[2],inactive; negative
same,mutagenic call,"Test System: AMES SALMONELLA TYPHIMURIUM, Strain/Indicator: TA100, Metabolic Activation: WOODCHUCK, LIVER, S-9, 3-METHYLCHOLANTHRENE, Method: STANDARD PLATE",inactive; negative
same,mutagenic call,[4],inactive; negative
same,mutagenic call,"Test System: AMES SALMONELLA TYPHIMURIUM, Strain/Indicator: TA1535, Metabolic Activation: WOODCHUCK, LIVER, S-9, 3-METHYLCHOLANTHRENE, Method: STANDARD PLATE",inactive; negative
same,mutagenic call,[8],inactive; negative
same,mutagenic call,"Test System: AMES SALMONELLA TYPHIMURIUM, Strain/Indicator: TA1538, Metabolic Activation: WOODCHUCK, LIVER, S-9, 3-METHYLCHOLANTHRENE, Method: STANDARD PLATE",inactive; negative
